The values below come from ChEMBL document CHEMBL5465560, “Selectivity Literature for EUbOPEN Chemogenomic Library” (2024).

For test [1], the target named is Serine/threonine-protein kinase 33 (Homo sapiens) (UniProt Q9BYT3). The experiment in a line: Selectivity interaction (LanthaScreen Eu Kinase Binding Assay) EUB0001632a STK33. The note with it: at 10 µM. (In general: TR-FRET usually uses a lanthanide donor and a delayed reading to cut background.)
Test [2] deals with T1, Mitogen-activated protein kinase 12 (Homo sapiens) (UniProt P53778).
T1 sequence (whole entry): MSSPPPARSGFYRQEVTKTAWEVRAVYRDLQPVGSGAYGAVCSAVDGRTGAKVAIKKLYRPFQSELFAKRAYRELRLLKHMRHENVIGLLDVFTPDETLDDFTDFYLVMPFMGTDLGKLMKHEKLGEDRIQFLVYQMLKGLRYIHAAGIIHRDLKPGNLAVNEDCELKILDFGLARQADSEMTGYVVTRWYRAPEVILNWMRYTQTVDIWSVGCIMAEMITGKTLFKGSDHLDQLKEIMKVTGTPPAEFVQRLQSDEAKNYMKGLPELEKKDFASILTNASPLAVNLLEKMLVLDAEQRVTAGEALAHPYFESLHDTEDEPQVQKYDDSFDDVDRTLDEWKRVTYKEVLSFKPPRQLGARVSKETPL
The experiment in a line: Selectivity interaction (KinomeScan (DiscoverX)) EUB0000595a MAPK12. The note with it: at 10 µM.

Test [3] has as its target Activin receptor type-2A (Homo sapiens) (UniProt P27037). The note with it: at 10 µM.
In test [4] the target is Cyclin-dependent kinase 2 (Homo sapiens, UniProt P24941). The experiment in a line: Selectivity interaction (ActivX KiNativ screen (kinase selectivity in THP-1 cell lysates)) EUB0000639a CDK2. Type of test: subcellular. The note with it: lysate.
For test [5], the target named is Protein kinase C gamma type (Homo sapiens) (UniProt P05129). The experiment in a line: Selectivity interaction (Kinase panel (Invitrogen)) EUB0000639a PRKCG. The note with it: at 200 nM.
The target in test [6] is Cyclin-dependent kinase 5 (Homo sapiens, UniProt Q00535). The test can be described thus: Selectivity interaction (KinomeScan (DiscoverX)) EUB0000045b CDK5.
Test [7] concerns the target T2, Dual specificity mitogen-activated protein kinase kinase 6 (Homo sapiens) (UniProt P52564).
T2 sequence (whole entry): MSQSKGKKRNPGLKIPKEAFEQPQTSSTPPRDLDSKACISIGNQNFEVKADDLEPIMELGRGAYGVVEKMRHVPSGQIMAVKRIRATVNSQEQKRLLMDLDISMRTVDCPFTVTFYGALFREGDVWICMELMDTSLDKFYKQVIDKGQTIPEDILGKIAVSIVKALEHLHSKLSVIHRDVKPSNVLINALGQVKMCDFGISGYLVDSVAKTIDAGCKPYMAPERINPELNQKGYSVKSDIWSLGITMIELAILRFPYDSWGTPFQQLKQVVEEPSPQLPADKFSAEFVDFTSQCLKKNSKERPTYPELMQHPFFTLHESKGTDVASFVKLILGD
The experiment in a line: Selectivity interaction (ProQinase) EUB0000171b MAP2K6.

The target of test [8] is Ribosomal protein S6 kinase alpha-6 (Homo sapiens, UniProt Q9UK32). The experiment in a line: Selectivity interaction (Ambit KINOMEscan and KiNATiv profiling in Jurkat cells) EUB0000090b RPS6KA6. The note with it: at 1 µM. Type of test: cell-based.
Test [9] deals with T3, Membrane-associated tyrosine- and threonine-specific cdc2-inhibitory kinase (Homo sapiens) (UniProt Q99640).
T3 sequence (whole entry): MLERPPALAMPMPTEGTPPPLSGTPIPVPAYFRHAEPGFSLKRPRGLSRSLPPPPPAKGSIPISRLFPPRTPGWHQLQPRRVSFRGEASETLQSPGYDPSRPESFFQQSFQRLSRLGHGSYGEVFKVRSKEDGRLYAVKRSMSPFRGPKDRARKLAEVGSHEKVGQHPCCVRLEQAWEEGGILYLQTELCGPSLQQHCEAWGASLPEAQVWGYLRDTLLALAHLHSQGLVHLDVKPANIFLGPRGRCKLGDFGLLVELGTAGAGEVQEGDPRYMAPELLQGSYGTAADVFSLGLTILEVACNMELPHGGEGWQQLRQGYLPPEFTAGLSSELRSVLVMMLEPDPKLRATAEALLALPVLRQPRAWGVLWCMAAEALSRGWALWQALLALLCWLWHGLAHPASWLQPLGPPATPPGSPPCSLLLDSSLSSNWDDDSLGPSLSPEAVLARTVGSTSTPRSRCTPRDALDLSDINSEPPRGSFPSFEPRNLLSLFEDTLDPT
The test can be described thus: Selectivity interaction (KinomeScan (DiscoverX)) EUB0000092b PKMYT1. The note with it: at 10 µM.

The target in test [10] is STE20/SPS1-related proline-alanine-rich protein kinase (Homo sapiens) (UniProt Q9UEW8). The experiment in a line: Selectivity interaction (Kinase panel (KiNativ target engagement assay in Jurkat cells)) EUB0001635a STK39. Type of test: cell-based. The note with it: Selectivity number of off-targets 0.0, Selectivity number of targets 233.0, Source Knowledge https://www.sciencedirect.com/science/article/pii/S2451945619300674?via%3Dihub, at 1 µM.

Chain of Cyclin-dependent kinase 5 (Q00535 whole entry, looked up): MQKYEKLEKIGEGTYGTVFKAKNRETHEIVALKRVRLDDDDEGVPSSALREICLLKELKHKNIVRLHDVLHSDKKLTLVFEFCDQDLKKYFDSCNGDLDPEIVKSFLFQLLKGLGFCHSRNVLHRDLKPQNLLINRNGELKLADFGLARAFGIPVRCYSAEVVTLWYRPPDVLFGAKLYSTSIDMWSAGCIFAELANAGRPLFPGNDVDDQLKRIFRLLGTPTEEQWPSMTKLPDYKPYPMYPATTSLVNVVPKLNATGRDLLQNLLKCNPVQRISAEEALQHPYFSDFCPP
Chain of Serine/threonine-protein kinase 33 (Homo sapiens) (Q9BYT3 whole entry, looked up): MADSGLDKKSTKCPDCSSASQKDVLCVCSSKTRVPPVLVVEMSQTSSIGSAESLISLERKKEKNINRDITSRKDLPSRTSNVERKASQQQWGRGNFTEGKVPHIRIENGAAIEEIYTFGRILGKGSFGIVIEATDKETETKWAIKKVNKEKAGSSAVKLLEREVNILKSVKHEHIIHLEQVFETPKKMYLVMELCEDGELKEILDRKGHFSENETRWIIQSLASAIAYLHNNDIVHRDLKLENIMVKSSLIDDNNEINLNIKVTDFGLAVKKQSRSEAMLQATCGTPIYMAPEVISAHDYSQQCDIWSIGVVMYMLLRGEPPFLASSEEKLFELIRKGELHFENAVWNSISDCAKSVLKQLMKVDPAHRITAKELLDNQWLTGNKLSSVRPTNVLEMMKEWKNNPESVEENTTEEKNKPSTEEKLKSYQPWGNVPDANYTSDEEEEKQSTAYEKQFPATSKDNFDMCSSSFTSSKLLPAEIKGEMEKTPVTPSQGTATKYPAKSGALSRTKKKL
Chain of Activin receptor type-2A (Homo sapiens) (P27037 whole entry): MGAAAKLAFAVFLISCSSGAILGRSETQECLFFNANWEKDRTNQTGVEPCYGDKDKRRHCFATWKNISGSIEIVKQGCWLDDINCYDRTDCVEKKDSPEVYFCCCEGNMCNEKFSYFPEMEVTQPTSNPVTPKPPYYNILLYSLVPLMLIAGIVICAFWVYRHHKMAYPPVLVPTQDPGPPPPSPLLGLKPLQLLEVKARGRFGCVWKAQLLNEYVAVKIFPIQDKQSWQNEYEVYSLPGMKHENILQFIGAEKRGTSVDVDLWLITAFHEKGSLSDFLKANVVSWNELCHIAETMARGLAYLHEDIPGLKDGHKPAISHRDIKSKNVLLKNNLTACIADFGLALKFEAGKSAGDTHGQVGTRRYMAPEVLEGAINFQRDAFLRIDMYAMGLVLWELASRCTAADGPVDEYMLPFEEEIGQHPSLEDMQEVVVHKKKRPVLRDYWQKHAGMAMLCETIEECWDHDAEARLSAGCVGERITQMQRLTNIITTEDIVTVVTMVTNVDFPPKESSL
Chain of Ribosomal protein S6 kinase alpha-6 (Q9UK32 whole entry): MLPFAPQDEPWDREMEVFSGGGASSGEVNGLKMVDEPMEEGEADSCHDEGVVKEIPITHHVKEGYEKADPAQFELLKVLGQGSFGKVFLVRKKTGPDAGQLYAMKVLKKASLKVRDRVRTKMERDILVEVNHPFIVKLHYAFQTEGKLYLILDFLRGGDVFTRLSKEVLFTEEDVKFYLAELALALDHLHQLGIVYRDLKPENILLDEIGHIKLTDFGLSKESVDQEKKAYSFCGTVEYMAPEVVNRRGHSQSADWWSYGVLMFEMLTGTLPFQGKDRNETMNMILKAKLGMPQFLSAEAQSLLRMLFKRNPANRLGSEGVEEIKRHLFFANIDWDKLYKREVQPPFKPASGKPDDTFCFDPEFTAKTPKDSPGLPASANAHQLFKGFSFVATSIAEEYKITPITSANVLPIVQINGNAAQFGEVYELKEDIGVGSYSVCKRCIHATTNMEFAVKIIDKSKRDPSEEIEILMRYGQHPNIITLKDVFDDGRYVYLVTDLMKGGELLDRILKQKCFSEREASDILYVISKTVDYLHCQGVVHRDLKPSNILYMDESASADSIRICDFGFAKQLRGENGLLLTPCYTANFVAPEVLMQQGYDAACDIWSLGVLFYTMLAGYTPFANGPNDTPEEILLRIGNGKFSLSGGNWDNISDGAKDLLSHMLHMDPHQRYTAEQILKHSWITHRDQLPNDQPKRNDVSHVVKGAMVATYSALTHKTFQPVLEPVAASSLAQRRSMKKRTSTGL

`Cn1cc(-n2cnc3c(NCc4nc5cc(Cl)c(Cl)cc5[nH]4)nc(N4CCOCC4)nc32)cn1`: the % of inhibition in [1] was -17.6%.

`COCC(=O)NC/C=C/c1ccc2ncnc(Nc3ccc(Oc4ccc(C)nc4)c(C)c3)c2c1` [CP-724714]: the % of control in [2] stood at 100%.

For the compound `CCN(CC)CCCCNc1ncc2cc(-c3cc(OC)cc(OC)c3)c(NC(=O)NC(C)(C)C)nc2n1`, the % of control in test [3] amounted to 100%.

Consider `CC[C@@H]1[C@H](F)C(=O)N[C@@H]1COc1nccc2cc(C(N)=O)c(OC)cc12` [ZIMLOVISERTIB], for which the % of inhibition was 1.9% in test [4] (at 0.01 µM); -4% in [4] (at 0.04 µM); 12.3% in [4] (at 0.2 µM); -8.5% in test [4] (at 1 µM); 6.3% in test [4] (at 5 µM); 12.1% in test [5].

On to `C=CC(=O)Nc1cc(-n2c(=O)ccc3cnc4ccc(-c5ccc(NS(C)(=O)=O)cc5)cc4c32)ccc1C`, for which the % of control in test [6] (at 1 µM) amounted to 88%; in [6] (at 10 µM), 100%.

For `C=CC(=O)Nc1cccc(C(=O)Nc2ccc(Nc3cc(-c4[nH]c(SC)nc4C)ccn3)cc2)c1`, the results for the % of control in test [7] (at 1 µM) and in test [7] (at 5 µM) were 103% and 126%, respectively.

In test [8], `CN(C)C/C=C/C(=O)Nc1ccc(C(=O)N2CCCC(Nc3ncc(Cl)c(-c4c[nH]c5ccccc45)n3)C2)cc1` (stereo unspecified) registered a % of control of 14%.

Take `CCC(=O)N1CCN(c2ccc(-n3c(=O)ccc4cnc5ccc(-c6cnc7ccccc7c6)cc5c43)cc2C(F)(F)F)CC1`: the % of control in test [9] is 52%.

In [10], `C=CC(=O)Nc1ccc(C(=O)Nc2[nH]nc3c2CN(C(=O)N[C@H](CN(C)C)c2ccccc2)C3(C)C)cc1` returned a % of engagement of 11.5%.
